# Test results: patent publication US12016834B2, “Small molecule inhibitors of SLC25A1” (GEORGETOWN UNIVERSITY, priority 2017, dated 2024)
# System: MP1 tumor spheres
# Experiment: Spheroid-based matrix invasion assay (invadopodia)
# Type: cell-based, human
# Conditions: spheres embedded in geltrex
# Method: Invadopodia measurements. After embedding the spheres in a 3D matrix, their extent of invasion was monitored over […]. Using an inverted microscope set at a magnification of 20×, images of the spheres were obtained at 0 hours, 24 hours, and 48 hours after plating. Analysis for invasion was done using ‘imageJ’ by NIH. The area of invasion was measured by sketching an outline around the spheres using the freehand draw tool. The ‘measure’ tool in ‘Analyze’ on the top menu calculated the area for the selected spheroid. The areas of just the spheres (inner area) and the area of the spheres along with its invadopodia (outer area) were measured. The percent difference between the outer area and the inner area was graphed to understand the extent of invasion in each cell type at different time points. The obtained areas for all the spheres were graphed. Spheres of similar areas were selected, whereas the outliers were eliminated so as to compare the spheres of similar volumes.
smiles,measurement,value
O=C(O)c1ccccc1NS(=O)(=O)c1ccc(Cl)c([N+](=O)[O-])c1 [CTPI-2],matrix invasion,completely reverted this phenotype
